Measurements taken from patent US11884652B2, “Tetrazole derivatives as TRPA1 inhibitors” (Boehringer Ingelheim International GmbH, priority 2020, dated 2024).

Tests used:
[1] = biological target: T1, human TRPA1 ion channel (Homo sapiens, UniProt O75762); test: Assay A: TRPA1 assay (FLIPR, AITC-induced calcium, HEK293 cells); assay type: cell-based; conditions: read-out: hTRPA1 IC50
T1 construct: host or cells: HEK293
Protocol: A human HEK293 cell line over-expressing the human TRPA1 ion channel (Perkin Elmer, Product No. AX-004-PCL) is used as a test system for compound efficacy and potency. Compound activity is determined by measuring the effect of compounds on intracellular calcium concentration induced by AITC (Allylisothiocyanat) agonism in a FLIPRtetra system (Molecular Devices).
The cells are obtained as frozen cells in cryo-vials and stored until use at −150° C. Cells are grown in culture medium (MEM/EBSS medium with 10% FCS and 0.4 mg/ML Geneticin). […] For sub-culturing cells are detached from flasks by Versene. At the day before the assay, cells are detached, washed twice with medium (MEM/EBSS medium with 10% FCS) and 20000 cells in 20 μl/well are seeded to Poly D-Lysin biocoated 384-well plates (black, clear bottom, Cat. 356697) from Corning. Plates are incubated for 24 hours at 37° C./5% CO2 before use in the assay.
The test compounds are dissolved in 100% DMSO at a concentration of 10 mM and in a first step diluted in DMSO to a concentration of 5 mM, followed by serial dilution steps in 100% DMSO. Dilution factor and number of dilution steps may vary according to needs. Typically 8 different concentrations by 1:5 dilutions are prepared, further intermediate dilutions (1:20) of the substances are carried out with HBSS/HEPES buffer (1×HEPES, Cat. 14065 from Gibco, 20 mM HEPES, Cat. 83264 from SIGMA, 0.1% BSA Cat. 11926 from Invitrogen, pH 7.4
At the assay day cells are washed 3× with assay puffer, 20 μL buffer remaining in the wells after washing. 10 μL Ca6 kit (Cat. R8191 MolecularDevices) loading buffer in HBSS/HEPES is added to the cells and the plates are incubated with lid for 120 minutes at 37°/5% CO2. 10 μL of compound or controls in HBSS/HEPES buffer/5% DMSO from the intermediate dilution plate are carefully added to the wells. […] Finally 10 μL of the agonist AITC 50 μM dissolved in HBSS/HEPES buffer/0.05% DMSO (final concentration 10 μM) is added to the wells followed by an additional read on the FLIPRtetra device for 10 minutes. The area under the signal curve (AUC) after AITC addition is used for IC50/% inhibition calculations
Data Evaluation and Calculation:
Each assay microtiter plate contains wells with vehicle (1% DMSO) controls instead of compound as controls for AITC induced luminescence (100% CTL; high controls) and wells with vehicle controls without AITC as controls for non-specific changes in luminescence (0% CTL; low controls).
The analysis of the data is performed by the calculation of the area under signal curve of the individual wells. Based on this values the % value for the measurement of each substance concentration is calculated (AUC(sample)−AUC(low))*100/(AUC(high)−AUC(low)) using MegaLab software (in house development). The IC50 values are calculated from the % control values using MegaLab software. Calculation: [y=(ad)/(1+(x/c)^b)+d], a=low value, d=high value; x=conc M; c=IC50 M; b=hill; y=% ctrl

[2] = Assay B: Microsomal clearance; assay type: in vitro ADME, human; conditions: pooled liver microsomes 1 mg/ml, 1 μM compound, NADPH, 37° C.; clearance as % of hepatic blood flow
Protocol: Assay B: Microsomal Clearance:
The metabolic degradation of the test compound is assayed at 37° C. with pooled liver microsomes. The final incubation volume of 100 μl per time point contains TRIS buffer pH 7.6 at RT (0.1 M), magnesium chloride (5 mM), microsomal protein (1 mg/ml) and the test compound at a final concentration of 1 μM.
Following a short preincubation period at 37° C., the reactions are initiated by addition of beta-nicotinamide adenine dinucleotide phosphate, reduced form (NADPH, 1 mM) and terminated by transferring an aliquot into solvent after different time points (0, 5, 15, 30, 60 min). Additionally, the NADPH-independent degradation is monitored in incubations without NADPH, terminated at the last time point. The [%] remaining test compound after NADPH independent incubation is reflected by the parameter c(control) (metabolic stability). The quenched incubations are pelleted by centrifugation (10000 g, 5 min).
An aliquot of the supernatant is assayed by LC-MS/MS for the amount of parent compound. The half-life (t½ INVITRO) is determined by the slope of the semilogarithmic plot of the concentration-time profile.
The intrinsic clearance (CL_[…]) is calculated by considering the amount of protein in the incubation: CL_[…] [μl/min/mg protein]=(Ln 2/(half-life [min]*protein content [mg/ml]))*1000 CL_[…]_INVIVO [ml/min/kg]=(CL_[…] [μL/min/mg protein]×MPPGL [mg protein/g liver]×liver factor [g/kg bodyweight])/1000 Qh[%]=CL[ml/min/kg]/hepatic blood flow [ml/min/kg])
(§1) Hepatocellularity, human: 120×10e6 cells/g liver
(§2) Liver factor, human: 25.7 g/kg bodyweight
(§3) Blood flow, human: 21 ml/(min×kg)

[3] = Assay C: Hepatocyte clearance; assay type: in vitro ADME, human; conditions: hepatocyte suspension, 1 μM compound, 6 h; predicted clearance as % of hepatic blood flow
Protocol: Assay C: Hepatocyte Clearance
The metabolic degradation of the test compound is assayed in a hepatocyte suspension. Hepatocytes (cryopreserved) are incubated in Dulbecco's modified eagle medium (supplemented with 3.5 μg glucagon/500 mL, 2.5 mg insulin/500 mL and 3.75 mg/500 mL hydrocortison) containing 5% or 50% species serum.
The cells are incubated for six hours (incubator, orbital shaker) and samples ([…]) are taken at 0, 0.5, 1, 2, 4 and 6 hours. Samples are transferred into acetonitrile and pelleted by centrifugation (5 min). The supernatant is transferred to a new 96-deepwell plate, evaporated under nitrogen and resuspended.
Decline of Parent Compound is Analyzed by HPLC-MS/MS
CLint is calculated as follows CL_[…]=Dose/AUC=(C0/CD)/(AUD+clast/k)×1000/60. C0: initial concentration in the incubation [μM], CD: cell density of vital cells [10e6 cells/mL], AUD: area under the data [μM×h], clast: concentration of last data point [μM], k: slope of the regression line for parent decline [h−1].
The calculated in vitro hepatic intrinsic clearance can be scaled up to the intrinsic in vivo hepatic Clearance and used to predict hepatic in vivo blood clearance (CL) by the use of a liver model (well stirred model). CL_[…]_INVIVO [ml/min/kg]=(CL_[…] [μL/min/10e6 cells]×hepatocellularity [10e6 cells/g liver]×liver factor [g/kg bodyweight])/1000 CL[ml/min/kg]=CL_[…]_INVIVO [ml/min/kg]×hepatic blood flow [ml/min/kg]/(CL_[…]_INVIVO [ml/min/kg]+hepatic blood flow [ml/min/kg]) Qh[%]=CL[ml/min/kg]/hepatic blood flow [ml/min/kg])
as §1, §2, §3

T1 sequence (O75762 whole entry): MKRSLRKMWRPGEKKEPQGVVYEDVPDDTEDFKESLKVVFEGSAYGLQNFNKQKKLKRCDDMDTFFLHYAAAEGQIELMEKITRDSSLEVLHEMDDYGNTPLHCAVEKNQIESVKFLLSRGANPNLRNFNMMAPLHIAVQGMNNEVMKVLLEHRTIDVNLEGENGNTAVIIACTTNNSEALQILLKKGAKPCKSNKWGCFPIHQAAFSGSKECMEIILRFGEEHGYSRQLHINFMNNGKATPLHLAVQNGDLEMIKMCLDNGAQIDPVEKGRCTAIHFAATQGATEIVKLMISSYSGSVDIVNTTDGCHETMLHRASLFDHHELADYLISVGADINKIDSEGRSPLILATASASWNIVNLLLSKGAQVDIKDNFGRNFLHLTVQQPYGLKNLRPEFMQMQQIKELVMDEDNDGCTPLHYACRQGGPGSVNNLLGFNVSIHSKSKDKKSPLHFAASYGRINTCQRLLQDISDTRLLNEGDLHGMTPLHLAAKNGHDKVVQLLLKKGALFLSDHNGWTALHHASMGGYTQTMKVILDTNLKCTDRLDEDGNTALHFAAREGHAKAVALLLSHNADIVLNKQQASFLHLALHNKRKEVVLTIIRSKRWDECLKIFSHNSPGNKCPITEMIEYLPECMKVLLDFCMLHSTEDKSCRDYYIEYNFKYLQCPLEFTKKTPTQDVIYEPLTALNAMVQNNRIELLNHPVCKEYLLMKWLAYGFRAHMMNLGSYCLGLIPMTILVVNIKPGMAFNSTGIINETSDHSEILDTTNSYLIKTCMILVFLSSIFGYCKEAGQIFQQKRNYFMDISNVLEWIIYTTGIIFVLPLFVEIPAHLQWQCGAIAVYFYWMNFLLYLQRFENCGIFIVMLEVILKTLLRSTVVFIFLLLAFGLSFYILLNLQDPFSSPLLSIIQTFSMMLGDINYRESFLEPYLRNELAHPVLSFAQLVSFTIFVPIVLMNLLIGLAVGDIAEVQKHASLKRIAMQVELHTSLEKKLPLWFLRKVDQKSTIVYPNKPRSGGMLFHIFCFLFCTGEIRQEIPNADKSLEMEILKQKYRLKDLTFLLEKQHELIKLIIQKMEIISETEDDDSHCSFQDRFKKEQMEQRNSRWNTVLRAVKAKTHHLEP

| Compound | IC50 [1] [nM] | human LM [% Qh] [2] [% Qh] | human Hepatocytes [% Qh] [3] [% Qh] |
| --- | --- | --- | --- |
| NC(=O)c1cn(Cc2nnn(C[C@H](O)c3ccc(Cl)cc3)n2)c(=O)n(C2CCC2)c1=O [Example 18] | 33 | 38 | 39 |
| Cn1c(=O)c(C(N)=O)cn(Cc2nnn(C[C@H](O)c3cc4ccc(F)cc4s3)n2)c1=O [Example 3] | 18 | 26 | 27 |
| Cn1ccnc1CNC(=O)c1cn(Cc2nnn(C[C@H](O)c3ccc(Cl)cc3)n2)c(=O)n(C)c1=O [Example 26] | 100 | 52 | 21 |
| Cn1c(=O)c(C(N)=O)cn(Cc2nnn(C[C@H](O)c3ccc4oc(F)cc4c3)n2)c1=O [Example 4] | 34 | <23 | 8 |
| Cn1c(=O)c(C(=O)NCCF)cn(Cc2nnn(C[C@H](O)c3ccc(Cl)cc3)n2)c1=O [Example 33] | 116 | 57 | 28 |
| COCCn1c(=O)c(C(N)=O)cn(Cc2nnn(C[C@H](O)c3ccc(Cl)cc3)n2)c1=O [Example 21] | 258 | <23 | 15 |
| Cc1ccc([C@@H](O)Cn2nnc(Cn3cc(C(N)=O)c(=O)n(C)c3=O)n2)cc1 [Example 13] | 124 | <23 | <4 |
| Cn1c(=O)c(C(=O)NCC(F)(F)F)cn(Cc2nnn(C[C@H](O)c3ccc(Cl)cc3)n2)c1=O [Example 31] | 68 | <23 | 4 |
| Cn1c(=O)c(C(N)=O)cn(Cc2nnn(C[C@H](O)c3ccc(Br)cc3)n2)c1=O [Example 7] | 56 | <23 | <4 |
| Cn1c(=O)c(C(N)=O)cn(Cc2nnn(C[C@H](O)c3ccc(Cl)s3)n2)c1=O [Example 10] | 92 | <23 | 15 |
| CN1CCOCC1CNC(=O)c1cn(Cc2nnn(C[C@H](O)c3ccc(Cl)cc3)n2)c(=O)n(C)c1=O (stereo partly drawn) [Example 25] | 43 | 55 | 42 |
| Cn1c(=O)c(C(=O)NCCN2CCOCC2)cn(Cc2nnn(C[C@H](O)c3ccc(Cl)cc3)n2)c1=O [Example 24] | 39 | 38 | 28 |
| CC(C)Cn1c(=O)c(C(N)=O)cn(Cc2nnn(C[C@H](O)c3ccc(Cl)cc3)n2)c1=O [Example 17] | 213 | 42 | 49 |
| Cn1c(=O)c(C(N)=O)cn(Cc2nnn(C[C@H](O)c3cc4ccc(F)cc4o3)n2)c1=O [Example 12] | 110 | <23 | 16 |
| Cn1c(=O)c(C(=O)NCC2CC2)cn(Cc2nnn(C[C@H](O)c3ccc(Cl)cc3)n2)c1=O [Example 32] | 92 | 52 | 45 |
| CNC(=O)c1cn(Cc2nnn(C[C@H](O)c3ccc(Cl)cc3)n2)c(=O)n(C)c1=O [Example 27] | 140 | <23 | 17 |
| Cn1c(=O)c(C(N)=O)cn(Cc2nnn(C[C@H](O)c3ccc4c(c3)OCO4)n2)c1=O [Example 11] | 105 | <23 | <4 |
| COCCNC(=O)c1cn(Cc2nnn(C[C@H](O)c3ccc(Cl)cc3)n2)c(=O)n(C)c1=O [Example 22, 1-({2-[(2R)-2-(4-chlorophenyl)-2-hydroxyethyl]-2H-1,2,3,4-tetrazol-5-yl}methyl)-N-(2-methoxyethyl)-3-methyl-2,4-dioxo-1,2,3,4-tetrahydropyrimidine-5-carboxamide] | 23 | <23 | 25 |
| Cn1c(=O)c(C(N)=O)cn(Cc2nnn(C[C@H](O)c3cc4ccccc4o3)n2)c1=O [Example 9] | 72 | <23 | 7 |
| Cn1c(=O)c(C(N)=O)cn(Cc2nnn(C[C@H](O)c3cc4cc(F)ccc4o3)n2)c1=O [Example 8] | 59 | <23 | 6 |
| Cn1c(=O)c(C(N)=O)cn(Cc2nnn(C[C@H](O)c3cc4cc(Cl)ccc4o3)n2)c1=O [Example 6] | 42 | <23 | 15 |
| Cn1c(=O)c(C(N)=O)cn(Cc2nnn(C[C@H](O)c3cc4cccc(F)c4o3)n2)c1=O [Example 15] | 198 | <23 | 14 |
| Cn1c(=O)c(C(=O)NCC(F)F)cn(Cc2nnn(C[C@H](O)c3ccc(Cl)cc3)n2)c1=O [Example 23] | 39 | <23 | 15 |
| CCn1c(=O)c(C(N)=O)cn(Cc2nnn(C[C@H](O)c3ccc(Cl)cc3)n2)c1=O [Example 19] | 62 | <23 | 5 |
| Cn1c(=O)c(C(=O)NCCOC(F)(F)F)cn(Cc2nnn(C[C@H](O)c3ccc(Cl)cc3)n2)c1=O [Example 30] | 44 | 28 | 9 |
